Experimental data reported in the supplement of paper PMC10627819.

Tests used:
Conditions in all cases: main component drawn
B. subtilis 168 [1] = assay: Bliss interaction score (quartile over a dose matrix) (fitness difference); higher = more antagonism (negative = synergy)
Outline: (§1)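 Fitness here means normalised growth, inferred for single drugs from the combination data. Growth was OD595 at entry into stationary phase, divided by the plate's robust no-drug mean and capped at 1. The Bliss score is observed minus expected fitness, with the expectation being the product, and its quartiles span technical, biological and donor/recipient replicates.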

S. aureus DSM 20231 = assay: as above
Outline: as §1

S. aureus Newman = assay: as above
Outline: as §1

S. pneumoniae D39V [2] = assay: as above
Outline: as §1

B. subtilis 168 [3] = assay: fitness (endpoint OD595 vs no drug) (fraction); higher = more growth
Outline: (§2)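 Fitness was defined as the optical density at the transition into stationary phase relative to the robust mean of no-drug control wells. Values were capped at 1. Cultures were started at OD595 0.01 in 384-well plates (30 µl, or 55 µl for S. pneumoniae) in TSB, LB Lennox or CY at 37 °C. OD595 was recorded every 30 min over 14 h, with the first reading subtracted as background.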

S. pneumoniae D39V [4] = assay: as above
Outline: as §2
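Throughout, for Bliss interaction score (quartile over a dose matrix): first quartile when negative (synergy) and third quartile when positive (antagonism).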

O=C(O)c1cn(C2CC2)c2cc(N3CCNCC3)c(F)cc2c1=O [Ciprofloxacin] + CCC(C)C1C(=O)NC(=C)C(=O)NC(C(=O)NC(CSCC(C(=O)N1)NC(=O)/C(=C/C)/NC(=O)C(C(C)CC)N)C(=O)NC2C(SCC(NC(=O)CNC(=O)C3CCCN3C2=O)C(=O)NC(CCCCN)C(=O)NC4C(SCC(NC(=O)CNC(=O)C(NC(=O)C(NC(=O)C(NC(=O)CNC4=O)C)CC(C)C)CCSC)C(=O)NC(CC(=O)N)C(=O)NC(CCSC)C(=O)NC(CCCCN)C(=O)NC5C(SCC6C(=O)NC(C(=O)NC(CSC(C(C(=O)N6)NC(=O)C(NC5=O)C)C)C(=O)NC(CO)C(=O)NC(C(C)CC)C(=O)NC(CC7=CN=CN7)C(=O)NC(C(C)C)C(=O)NC(=C)C(=O)NC(CCCCN)C(=O)O)CC8=CN=CN8)C)C)C)CC(C)C [Nisin]
Conditions | Bliss interaction score
B. subtilis 168 [1] | -0.0496
S. aureus DSM 20231 | -0.123
S. aureus Newman | -0.059
S. pneumoniae D39V [2] | -0.0601

Conditions | fitness
B. subtilis 168 [3], first compound 0.0098 µg/mL, partner 0.5 µg/mL | 0.838
B. subtilis 168 [3], first compound 0.0098 µg/mL, partner 1 µg/mL | 0.814
B. subtilis 168 [3], first compound 0.0098 µg/mL, partner 2 µg/mL | 0.568
B. subtilis 168 [3], first compound 0.0195 µg/mL, partner 0.5 µg/mL | 0.702
B. subtilis 168 [3], first compound 0.0195 µg/mL, partner 1 µg/mL | 0.591
B. subtilis 168 [3], first compound 0.0195 µg/mL, partner 2 µg/mL | 0.427
B. subtilis 168 [3], first compound 0.039 µg/mL, partner 0.5 µg/mL | 0.276
B. subtilis 168 [3], first compound 0.039 µg/mL, partner 1 µg/mL | 0.129
B. subtilis 168 [3], first compound 0.039 µg/mL, partner 2 µg/mL | 0.031
S. pneumoniae D39V [4], first compound 0.125 µg/mL, partner 0.4275 µg/mL | 0.954
S. pneumoniae D39V [4], first compound 0.125 µg/mL, partner 0.855 µg/mL | 0.825
S. pneumoniae D39V [4], first compound 0.125 µg/mL, partner 1.6 µg/mL | 0.0088
S. pneumoniae D39V [4], first compound 0.125 µg/mL, partner 1.71 µg/mL | 0.0552
S. pneumoniae D39V [4], first compound 0.125 µg/mL, partner 3.2 µg/mL | 0.0108
S. pneumoniae D39V [4], first compound 0.125 µg/mL, partner 6.4 µg/mL | 0.005
S. pneumoniae D39V [4], first compound 0.25 µg/mL, partner 0.4275 µg/mL | 0.883
S. pneumoniae D39V [4], first compound 0.25 µg/mL, partner 0.855 µg/mL | 0.398
S. pneumoniae D39V [4], first compound 0.25 µg/mL, partner 1.71 µg/mL | 0.0414
S. pneumoniae D39V [4], first compound 0.5 µg/mL, partner 0.4275 µg/mL | 0.614
S. pneumoniae D39V [4], first compound 0.5 µg/mL, partner 0.855 µg/mL | 0.173
S. pneumoniae D39V [4], first compound 0.5 µg/mL, partner 1.6 µg/mL | 0.0116
S. pneumoniae D39V [4], first compound 0.5 µg/mL, partner 1.71 µg/mL | 0.0558
S. pneumoniae D39V [4], first compound 0.5 µg/mL, partner 3.2 µg/mL | 0.043

fitness, one replicate
Conditions | partner 1.25 µg/mL | partner 1.6 µg/mL | partner 2.5 µg/mL | partner 3.2 µg/mL | partner 4 µg/mL | partner 5 µg/mL | partner 6.4 µg/mL | partner 8 µg/mL | partner 16 µg/mL
B. subtilis 168 [3], first compound 0.0098 µg/mL | 0.919 | 0.726 | 0.577 | 0.0245 | 0.368 | 0.0657 | 0.0606 | 0.0414 | 0.0186
B. subtilis 168 [3], first compound 0.0195 µg/mL | 0.795 | 0.575 | 0.381 | 0.0411 | 0.223 | 0.035 | 0.0488 | 0.0139 | 0.0115
B. subtilis 168 [3], first compound 0.039 µg/mL | 0.256 | 0.0309 | 0.0565 | 0.0347 | 0.0357 | 0.061 | 0.0335 | 0.0446 | 0.0305
S. pneumoniae D39V [4], first compound 0.25 µg/mL | – | 0 | – | 0 | – | – | 0 | – | –
